Data taken from US10588897B2 (priority 2013, dated 2020).
Where two headings read alike, the source gives them in different places.

Key:
[1] = system: Y. pseudotuberculosis T3SS (YopE secretion); type: cell-based, Yersinia pseudotuberculosis
E. coli = conditions: found by Kimura et al.; cited from earlier work
[2] = system: Escherichia coli type III secretion; conditions: literature; cited from earlier work
[3] = system: Yersinia pestis type III secretion; conditions: cited from earlier work
[4] = system: wildtype Y. pseudotuberculosis IP2666; type: cell-based, Yersinia pseudotuberculosis
[5] = system: Y. pseudotuberculosis T3SS; type: cell-based, Yersinia pseudotuberculosis

## C/C=C\C=C\[C@@H]1O[C@](O)([C@H](CC)C(=O)NC/C=C/C=C(\C)[C@@H](OC)[C@@H](C)[C@@H]2O[C@H](/C=C/C=C/C=C(\C)C(=O)c3c(O)ccn(C)c3=O)[C@H](O)[C@@H]2O)[C@H](O)[C@H](O)C1(C)C [Aurodox]
[1]; 12.5 μM, highest concentration used
  inhibition of YopE secretion: did not significantly inhibit
E. coli
  concentrations cytotoxic to E. coli: above 12.5 μM
[2]
  in vitro type III secretion by Escherichia coli: reduce

## CC(Oc1ccc(Cl)cc1Cl)C(=O)NCc1ccc2c(c1)OCO2 (stereo not drawn) [MBX 1641]
[3]
  in vitro type III secretion by Yersinia pestis: reduce

## C/C=C(\C)[C@H](O)[C@H](C)/C=C(C)/C=C/C/C(C)=C/Cc1nc(OC)cc(O)c1C [Mer-A 2026B]
[4]
  Y. pseudotuberculosis in vitro growth (OD600 compound-treated/OD600 DMSO-treated): do not affect
  Yersinia growth by optical density: did not inhibit
[5]
  YopM translocation into CHO cells: significantly reduced
[5]; 71 µM
  T3SS inhibition (YopM translocation into CHO cells): 75%
[1]
  inhibition of YopE secretion at lower concentrations: dose dependent decrease in inhibition
  reduction of secretion of the T3SS effector YopE: 45%

## C/C=C(\C)[C@H](O)[C@H](C)/C=C(C)/C=C/C/C(C)=C/Cc1nc(OC)c(OC)c(O)c1C [Piericidin A1]
[4]; 143 μM, 23° C., continuous shaking
  Y. pseudotuberculosis in vitro growth (OD600 compound-treated/OD600 DMSO-treated): do not affect
[4]; 143 μM, 37° C., continuous shaking
  Y. pseudotuberculosis in vitro growth (OD600 compound-treated/OD600 DMSO-treated): do not affect
[4]; 26° C. and 37° C., all tested concentrations up to 143 μM
  Yersinia growth by optical density: did not inhibit
[5]; concentrations of 36 μM and greater
  YopM-β-lactamase translocation: significantly diminished
[1]; 71 μM, 2 hours at 37° C., relative to DMSO
  reduction of secretion of the T3SS effector YopE: 65%
